Measurements taken from ChEMBL document CHEMBL1201862, “PubChem BioAssay data set” (2004).
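Where inhibition never reached the appropriate level, the endpoint shown equals the highest concentration tested. Otherwise, values were interpolated linearly from a five-concentration, 48-hour dose response in 96-well plates. The concentration for 50% growth inhibition is given as GI50.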 The source made the active and inactive calls. No stated cut-off is given here; in the data, active = GI50 up to about 1.1 µM and inactive = higher.

Columns and labels:
Experiment in all cases: NCI tumour cell line growth inhibition, 48 h
[1] = test system: SK-OV-3
[2] = test system: SF-268
[3] = test system: NCI-H226
[4] = test system: HCT-15
[5] = test system: U-251
[6] = test system: NCI-H23
[7] = test system: IGROV-1
[8] = test system: UACC-257
[9] = test system: HCT-116
[10] = test system: RPMI-8226
[11] = test system: HT-29
[12] = test system: NCI-H460
[13] = test system: NCI/ADR-RES
[14] = test system: A549
[15] = test system: PC-3
[16] = test system: TK-10
[17] = test system: UACC-62
[18] = test system: HCC 2998
[19] = test system: T47D
[20] = test system: MDA-MB-435

Structure (SMILES)	GI50 [1]	GI50 [2]	GI50 [3]	GI50 [4] [µM]	GI50 [5]	GI50 [6]	GI50 [7]	GI50 [8]	GI50 [9]	GI50 [10]	GI50 [11]	GI50 [12]	GI50 [13]	GI50 [14]	GI50 [15]	GI50 [16]	GI50 [17]	GI50 [18]	GI50 [19]	GI50 [20]
O=C1c2ccccc2-c2nc3ccc(O)cc3n21	> 100 µM (inactive)	> 100 µM (inactive)	> 100 µM (inactive)	> 100	> 100 µM (inactive)	> 100 µM (inactive)	> 100 µM (inactive)	> 100 µM (inactive)	> 100 µM (inactive)	> 100 µM (inactive)	> 100 µM (inactive)	> 100 µM (inactive)	> 100 µM (inactive)	> 100 µM (inactive)	> 100 µM (inactive)	> 100 µM (inactive)	> 100 µM (inactive)	> 100 µM (inactive)		
O=C1/C(=C/c2ccccc2)CN(C(=O)OCc2ccccc2)C/C1=C\c1ccccc1	24.4 µM (inactive)	13.8 µM (inactive)	26.2 µM (inactive)	10.9	4.51 µM (inactive)	15.6 µM (inactive)	14.1 µM (inactive)	16 µM (inactive)	0.345 µM (active)		7.69 µM (inactive)	21.4 µM (inactive)		28.1 µM (inactive)	15 µM (inactive)	27.5 µM (inactive)	12.2 µM (inactive)	7.06 µM (inactive)	41.4 µM (inactive)	
COC(=O)C1=C(CCC[C@H](C)O[Si](C)(C)C(C)(C)C)NC(=O)N2[C@@H](CCO)CC[C@H]12	15.8 µM (inactive)	14.6 µM (inactive)	14.6 µM (inactive)	15	15.5 µM (inactive)	13.2 µM (inactive)	15.8 µM (inactive)	11.8 µM (inactive)	4.18 µM (inactive)	14.9 µM (inactive)	15.4 µM (inactive)	20.3 µM (inactive)	13.9 µM (inactive)	12.3 µM (inactive)		18.6 µM (inactive)			11.6 µM (inactive)	17.7 µM (inactive)
CN(C)C(=O)OC(Cn1cncn1)c1ccc(Cl)cc1Cl (stereo not drawn)	> 100 µM (inactive)	> 100 µM (inactive)	> 100 µM (inactive)	> 100	> 100 µM (inactive)	> 100 µM (inactive)	> 100 µM (inactive)	> 100 µM (inactive)	> 100 µM (inactive)	> 100 µM (inactive)	> 100 µM (inactive)	> 100 µM (inactive)		> 100 µM (inactive)		> 100 µM (inactive)	> 100 µM (inactive)	> 100 µM (inactive)		
